From US9562021B2, “Histone deacetylase inhibitors and compositions and methods of use thereof” (CHDI Foundation, Inc., priority 2013, dated 2017)
Like-named read-outs stand apart in the source and are kept apart here.

How the values were obtained:
[1] = tested on: cellular histone deacetylase activity in Jurkat E6-1 cells; assay: Inhibition of cellular HDAC activity, Boc-Lys(Tfa)-AMC substrate; format: cell-based; conditions: Homo sapiens, Class IIa selective substrate
Text: The potency of exemplifying compounds described herein is quantified by measuring the cellular histone deacetylase enzymatic activity using the Class IIa selective substrate, Boc-Lys(Tfa)-AMC. After penetration in Jurkat E6-1 cells, the substrate is deacetylated to Boc-Lys-AMC. After cell lysis and cleavage by trypsin, the fluorophore AMC is released from the deacetylated substrate only. The fluoresence of the sample is directly related to the histone deacetylase activity in the sample.
Jurkat E6.1 Cell Culture and Plating. Jurkat E6.1 cells are cultured according to standard cell culture protocols in Jurkat E6.1 Growth Media (RPMI without phenol red, 10% FBS, 10 mM HEPES, and 1 mM Sodium Pyruvate). Jurkat E6.1 cells are counted using a Coulter Counter and resuspended in Jurkat E6.1 growth media at a concentration of 75,000 cells/35 μL. 35 μL or 75,000 cells is seeded into Greiner microtitre assay plates. The plates are then incubated at 37° C. and 5% CO2 while other assay components are being prepared.
Serially Dilute HDAC Inhibitor Compounds. […]
Assay. […] Finally the top read fluorescence (Excitation: 355 nm, Emission: 460 nm) is measured using PerkinElmer EnVision.

Boc-Lys(Ac) = Boc-Lys(Ac) IC50; format: cell-based
HDAC4 [2] = target: T1, HDAC4 (Homo sapiens, UniProt P56524); assay: HDAC4 (bioch) IC50; format: biochemical
HDAC4 [3] = target: T1, HDAC4; assay: HDAC4 (cell) IC50; format: cell-based; conditions: Table 3
[4] = MDCK apparent permeability (Papp A>B); format: in vitro ADME; conditions: dog, pH 7.4
[5] = Hepatic microsomal stability, mouse; format: in vitro ADME; conditions: mouse liver microsomes
[6] = PK study (iv and po 10 mg/kg), plasma, brain and muscle; format: in vivo; conditions: for clearance: read-out: Clearance (CLp) (converted); for Vd: read-out: Volume of Distribution at Steady State (Vdss)
[7] = target: T2, human HDAC5 catalytic domain (Homo sapiens, UniProt Q9UQL6); assay: Inhibition of HDAC5 catalytic domain, Boc-Lys(Tfa)-AMC substrate; format: biochemical
T2 construct: amino acids 657-1123 with a C-terminal His tag; His (C); purchased BPS BioScience; host or cells: baculovirus expression system

human HDAC7 = target: T3, human HDAC7 (Homo sapiens, UniProt Q8WUI4); assay: Inhibition of HDAC7, Boc-Lys(Tfa)-AMC substrate; format: biochemical
T3 construct: amino acids 518-end with a N-terminal Glutathione S-transferase (GST) tag; GST (N); purchased BPS BioScience; host or cells: baculovirus expression system
T3 sequence (Q8WUI4 518-952 limits assumed): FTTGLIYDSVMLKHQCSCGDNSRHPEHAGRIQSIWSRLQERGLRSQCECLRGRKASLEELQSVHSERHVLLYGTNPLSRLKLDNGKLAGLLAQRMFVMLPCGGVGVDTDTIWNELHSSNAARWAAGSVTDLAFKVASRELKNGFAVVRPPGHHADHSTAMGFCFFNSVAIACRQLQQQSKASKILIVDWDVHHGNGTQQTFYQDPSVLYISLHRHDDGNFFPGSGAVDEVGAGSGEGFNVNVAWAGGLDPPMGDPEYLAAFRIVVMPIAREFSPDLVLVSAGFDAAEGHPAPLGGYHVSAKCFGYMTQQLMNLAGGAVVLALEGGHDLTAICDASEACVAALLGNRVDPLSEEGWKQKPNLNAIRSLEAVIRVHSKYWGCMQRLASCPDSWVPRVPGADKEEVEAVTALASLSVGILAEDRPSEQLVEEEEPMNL

human HDAC9 = target: T4, human HDAC9 (Homo sapiens, UniProt Q9UKV0); assay: Inhibition of HDAC9, Boc-Lys(Tfa)-AMC substrate; format: biochemical
T4 construct: amino acids 604-1066 with a C-terminal His tag; His (C); purchased BPS BioScience; host or cells: baculovirus expression system

HDAC3 = HDAC3 (Homo sapiens, UniProt O15379); assay: cat. HDAC3 IC50; format: biochemical
HDAC8 = target: T5, HDAC8 (Homo sapiens, UniProt Q9BY41); assay: cat. HDAC8 IC50; format: biochemical
T5 sequence (Q9BY41 1-377): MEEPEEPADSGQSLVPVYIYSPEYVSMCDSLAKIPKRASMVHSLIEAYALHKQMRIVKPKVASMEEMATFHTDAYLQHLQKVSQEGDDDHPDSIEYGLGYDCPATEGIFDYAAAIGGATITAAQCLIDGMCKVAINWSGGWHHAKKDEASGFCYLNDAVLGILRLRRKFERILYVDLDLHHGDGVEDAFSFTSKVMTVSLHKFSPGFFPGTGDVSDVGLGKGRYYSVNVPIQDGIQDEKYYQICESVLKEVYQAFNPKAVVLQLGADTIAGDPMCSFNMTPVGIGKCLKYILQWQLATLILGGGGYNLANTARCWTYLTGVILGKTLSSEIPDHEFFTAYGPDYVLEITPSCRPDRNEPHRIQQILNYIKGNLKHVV

HDAC6 = target: T6, HDAC6 (Homo sapiens, UniProt Q9UBN7); assay: cat. HDAC6 IC50; format: biochemical
T6 sequence (Q9UBN7 1-1215): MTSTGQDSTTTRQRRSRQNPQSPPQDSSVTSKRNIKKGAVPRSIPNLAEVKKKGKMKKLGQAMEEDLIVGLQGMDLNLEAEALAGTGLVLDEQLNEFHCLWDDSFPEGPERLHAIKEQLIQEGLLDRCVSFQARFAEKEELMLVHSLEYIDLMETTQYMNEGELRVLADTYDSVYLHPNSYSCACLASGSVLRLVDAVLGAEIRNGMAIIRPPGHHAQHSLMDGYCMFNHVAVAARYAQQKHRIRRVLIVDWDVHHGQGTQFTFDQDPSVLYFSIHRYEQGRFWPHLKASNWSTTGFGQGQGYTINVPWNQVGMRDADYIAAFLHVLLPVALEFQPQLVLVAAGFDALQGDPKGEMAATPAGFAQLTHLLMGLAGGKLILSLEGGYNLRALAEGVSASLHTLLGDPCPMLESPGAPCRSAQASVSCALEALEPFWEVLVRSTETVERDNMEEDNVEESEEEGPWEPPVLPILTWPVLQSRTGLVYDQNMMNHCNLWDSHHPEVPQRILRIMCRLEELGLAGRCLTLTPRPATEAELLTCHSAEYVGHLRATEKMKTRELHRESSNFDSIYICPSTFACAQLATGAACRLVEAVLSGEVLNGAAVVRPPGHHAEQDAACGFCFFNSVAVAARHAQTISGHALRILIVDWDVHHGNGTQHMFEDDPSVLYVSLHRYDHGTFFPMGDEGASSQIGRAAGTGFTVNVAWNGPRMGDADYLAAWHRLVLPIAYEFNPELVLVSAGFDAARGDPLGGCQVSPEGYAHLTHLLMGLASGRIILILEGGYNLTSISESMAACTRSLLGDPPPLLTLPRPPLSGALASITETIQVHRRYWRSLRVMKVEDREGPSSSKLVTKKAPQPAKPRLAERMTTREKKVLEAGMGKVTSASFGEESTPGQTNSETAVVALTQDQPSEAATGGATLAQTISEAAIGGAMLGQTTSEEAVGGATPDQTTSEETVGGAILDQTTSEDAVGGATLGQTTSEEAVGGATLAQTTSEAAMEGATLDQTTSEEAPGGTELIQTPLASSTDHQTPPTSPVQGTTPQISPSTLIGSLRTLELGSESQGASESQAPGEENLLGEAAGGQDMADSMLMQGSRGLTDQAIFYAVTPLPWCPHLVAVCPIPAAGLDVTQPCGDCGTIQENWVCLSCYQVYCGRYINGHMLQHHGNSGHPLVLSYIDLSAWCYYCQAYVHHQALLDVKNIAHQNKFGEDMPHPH

[8] = Table 3, read-out: IC50 μM (bioch)
[9] = 5 mg eq./Kg, IV PK, brain, read-out: Brain-plasma
[10] = 5 mg eq./Kg, IV PK, muscle section, read-out: Brain-plasma
[11] = 10 mg/Kg, Oral PK, brain, read-out: Brain-plasma
[12] = 10 mg/Kg, Oral PK, muscle, read-out: Muscle-plasma

T1 sequence (P56524 whole entry): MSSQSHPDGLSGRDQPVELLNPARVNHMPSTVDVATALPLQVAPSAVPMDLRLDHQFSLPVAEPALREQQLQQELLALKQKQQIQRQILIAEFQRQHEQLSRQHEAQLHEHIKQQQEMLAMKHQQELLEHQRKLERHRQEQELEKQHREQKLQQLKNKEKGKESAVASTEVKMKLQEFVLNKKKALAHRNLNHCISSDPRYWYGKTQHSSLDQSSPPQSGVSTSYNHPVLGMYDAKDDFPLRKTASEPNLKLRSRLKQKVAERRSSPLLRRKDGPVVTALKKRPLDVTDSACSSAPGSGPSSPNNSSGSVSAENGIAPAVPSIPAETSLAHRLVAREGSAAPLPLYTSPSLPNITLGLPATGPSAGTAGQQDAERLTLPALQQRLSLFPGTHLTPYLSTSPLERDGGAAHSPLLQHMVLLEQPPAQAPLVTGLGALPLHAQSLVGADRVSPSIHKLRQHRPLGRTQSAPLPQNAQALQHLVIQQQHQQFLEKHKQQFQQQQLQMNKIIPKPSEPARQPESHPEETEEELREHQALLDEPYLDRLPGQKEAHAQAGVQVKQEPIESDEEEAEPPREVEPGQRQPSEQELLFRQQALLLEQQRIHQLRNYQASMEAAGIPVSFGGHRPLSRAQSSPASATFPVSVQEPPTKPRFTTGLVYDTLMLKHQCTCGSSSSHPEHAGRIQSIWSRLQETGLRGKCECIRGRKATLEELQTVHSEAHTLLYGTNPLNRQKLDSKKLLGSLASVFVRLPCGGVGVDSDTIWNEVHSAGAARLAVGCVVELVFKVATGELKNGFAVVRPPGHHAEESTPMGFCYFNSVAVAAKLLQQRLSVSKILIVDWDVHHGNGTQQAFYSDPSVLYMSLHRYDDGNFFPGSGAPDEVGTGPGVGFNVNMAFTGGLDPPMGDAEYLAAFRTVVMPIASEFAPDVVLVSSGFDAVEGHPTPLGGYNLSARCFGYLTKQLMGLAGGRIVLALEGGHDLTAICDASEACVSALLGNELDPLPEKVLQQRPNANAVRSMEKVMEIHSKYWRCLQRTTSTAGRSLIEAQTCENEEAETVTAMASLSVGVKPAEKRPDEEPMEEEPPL
Chain of HDAC3 (O15379 whole entry): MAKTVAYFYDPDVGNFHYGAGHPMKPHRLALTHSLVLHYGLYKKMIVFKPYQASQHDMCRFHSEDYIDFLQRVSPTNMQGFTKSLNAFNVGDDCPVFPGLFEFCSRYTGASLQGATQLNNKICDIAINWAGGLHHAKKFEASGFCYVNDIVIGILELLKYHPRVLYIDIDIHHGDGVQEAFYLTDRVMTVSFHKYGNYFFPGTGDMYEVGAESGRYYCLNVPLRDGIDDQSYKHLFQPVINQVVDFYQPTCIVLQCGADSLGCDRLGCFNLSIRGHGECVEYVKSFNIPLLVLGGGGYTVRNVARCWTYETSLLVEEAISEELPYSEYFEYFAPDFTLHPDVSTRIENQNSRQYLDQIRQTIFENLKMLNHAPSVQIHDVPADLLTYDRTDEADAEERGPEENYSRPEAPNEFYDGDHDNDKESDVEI
Chain of HDAC3 (Q9Y618 395-489 partner limits assumed): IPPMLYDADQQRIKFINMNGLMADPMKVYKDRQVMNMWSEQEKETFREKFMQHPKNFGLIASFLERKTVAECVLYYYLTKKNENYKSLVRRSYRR
T2 sequence (Q9UQL6 656-1122): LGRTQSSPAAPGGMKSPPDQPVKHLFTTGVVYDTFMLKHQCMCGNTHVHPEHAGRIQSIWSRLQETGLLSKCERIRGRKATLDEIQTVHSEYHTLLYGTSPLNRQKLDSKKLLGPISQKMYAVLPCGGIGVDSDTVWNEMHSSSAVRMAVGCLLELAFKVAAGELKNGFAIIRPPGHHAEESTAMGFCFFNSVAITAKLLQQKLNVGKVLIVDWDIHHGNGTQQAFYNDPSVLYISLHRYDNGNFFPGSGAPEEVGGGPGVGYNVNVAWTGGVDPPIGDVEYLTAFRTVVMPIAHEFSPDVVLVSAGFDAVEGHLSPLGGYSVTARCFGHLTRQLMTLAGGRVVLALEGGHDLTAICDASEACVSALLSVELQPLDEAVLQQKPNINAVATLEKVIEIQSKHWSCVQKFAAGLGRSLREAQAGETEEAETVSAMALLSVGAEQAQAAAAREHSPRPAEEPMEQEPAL
T4 sequence (Q9UKV0 604-1066 isoform Q9UKV0-5): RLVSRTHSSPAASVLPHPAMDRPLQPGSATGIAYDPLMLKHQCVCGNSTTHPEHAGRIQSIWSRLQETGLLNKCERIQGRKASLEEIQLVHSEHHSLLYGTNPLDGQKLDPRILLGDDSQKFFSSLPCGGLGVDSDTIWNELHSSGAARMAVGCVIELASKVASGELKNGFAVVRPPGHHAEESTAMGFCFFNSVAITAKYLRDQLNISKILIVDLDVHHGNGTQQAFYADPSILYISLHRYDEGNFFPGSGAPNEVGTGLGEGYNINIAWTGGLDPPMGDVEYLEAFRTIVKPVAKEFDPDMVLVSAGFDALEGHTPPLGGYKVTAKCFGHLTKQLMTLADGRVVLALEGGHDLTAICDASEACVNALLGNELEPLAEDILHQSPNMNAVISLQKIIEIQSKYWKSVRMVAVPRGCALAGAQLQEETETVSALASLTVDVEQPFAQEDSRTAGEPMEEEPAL

Structure (SMILES) | IC50 [1] | IC50 (Boc-Lys(Ac)) | IC50 (HDAC4 [2]; [8]) | IC50 (HDAC4 [3]) | Papp A→B at 1 h, 10 μM [4] | MLM [5] | half-life ([6]; 5 mg eq./Kg, IV PK, brain) | Kp [6, 9] | half-life ([6]; 5 mg eq./Kg, IV PK, muscle) | Kp [6, 10] | half-life ([6]; 5 mg eq./Kg, IV PK, plasma) | clearance ([6]; 5 mg eq./Kg, IV PK, plasma) | Vd ([6]; 5 mg eq./Kg, IV PK, plasma) | Kp [6, 11] | Kp [6, 12] | AUCnorm ([6]; IV PK, brain) | AUCnorm ([6]; IV PK, muscle) | AUCnorm ([6]; IV PK, plasma) | AUCnorm ([6]; Oral PK, brain) | AUCnorm ([6]; Oral PK, muscle) | other results
O=C(NO)C(c1ccc(N2CCOCC2)cc1)c1ccccc1F (centres unmarked) |  |  | 0.07 µM | 0.64 µM | 23.4 ×10⁻⁶ cm/s | 93 mL/min/kg BW | 3.3 h | 0.54 to 8.9 | 4.8 h | 1.9 to 21 | 1.8 h | 123 mL/min/kg | 3.1 L/kg | 0.67 to 3.4 | 1.5 to 5.2 | 511 nM·kg·h/mg | 1048 nM·kg·h/mg | 409 nM·kg·h/mg | 151 nM·kg·h/mg | 260 nM·kg·h/mg | AUCnorm ([6]; Oral PK, plasma): 109 nM·kg·h/mg; Bioavaiability ([6]; Oral PK, plasma): 27%; Observed CmaxNorm ([6]; Oral PK, plasma): 95 nM·kg/mg
Cc1ncc(-c2ccc(C(C(=O)NO)c3ccccc3F)cc2)cn1 (centres unmarked) [Compound 6, 2-(2-fluorophenyl)-N-hydroxy-2-(4-(2-methylpyrimidin-5-yl)phenyl)acetamide] | 120 nM | > 50000 nM |  |  |  |  |  |  |  |  |  |  |  |  |  |  |  |  |  |  | 
O=C(NO)C(c1ccccc1)c1ccc(-c2cncnc2)cc1 (centres unmarked) [drawing 21] |  |  |  |  |  |  |  |  |  |  |  |  |  |  |  |  |  |  |  |  | Fold Selectivity (bioch) HDAC5:HDAC4 [7]: 0.3; Fold Selectivity (bioch) HDAC7:HDAC4 (human HDAC7): 0.8; Fold Selectivity (bioch) HDAC9:HDAC4 (human HDAC9): 1; IC50 (HDAC4 [2]; Table 4, bioch, read-out: HDAC4): 0.09 µM; Fold Selectivity (bioch) HDAC3:HDAC4 (HDAC3): 320; Fold Selectivity (bioch) HDAC8:HDAC4 (HDAC8): 60; Fold Selectivity (bioch) HDAC6:HDAC4 (HDAC6): 50

Further lines, with some results ahead:

IC50 [1] | IC50 (Boc-Lys(Ac)) | IC50 (HDAC4 [2]; [8]) | IC50 (HDAC4 [3]) | Papp A→B at 1 h, 10 μM [4] | MLM [5] | half-life ([6]; 5 mg eq./Kg, IV PK, brain) | Kp [6, 9] | half-life ([6]; 5 mg eq./Kg, IV PK, muscle) | Kp [6, 10] | half-life ([6]; 5 mg eq./Kg, IV PK, plasma) | clearance ([6]; 5 mg eq./Kg, IV PK, plasma) | Vd ([6]; 5 mg eq./Kg, IV PK, plasma) | Kp [6, 11] | Kp [6, 12] | AUCnorm ([6]; IV PK, brain) | AUCnorm ([6]; IV PK, muscle) | AUCnorm ([6]; IV PK, plasma) | AUCnorm ([6]; Oral PK, brain) | AUCnorm ([6]; Oral PK, muscle) | Structure (SMILES) | other results
59 nM | > 50000 nM |  |  |  |  |  |  |  |  |  |  |  |  |  |  |  |  |  |  | O=C(NO)C(c1ccc(-c2ncc(C(F)(F)F)cn2)cc1)c1ccccc1F (centres unmarked) [Compound 8, 2-(2-fluorophenyl)-N-hydroxy-2-(4-(5-(trifluoromethyl)pyrimidin-2-yl)phenyl)acetamide] | 
 |  | 0.09 µM | 0.55 µM | 17.5 ×10⁻⁶ cm/s | 77 mL/min/kg BW | 2.2 h | 0.12 to 2 | 4 h | 1.1 to 8.9 | 1.8 h | 107 mL/min/kg | 2.6 L/kg | 0.15 to 1.4 | 1 to 8 | 162 nM·kg·h/mg | 835 nM·kg·h/mg | 516 nM·kg·h/mg | 58 nM·kg·h/mg | 306 nM·kg·h/mg | O=C(NO)C(c1ccccc1)c1ccc(-c2cncnc2)cc1 (centres unmarked) [drawing 19] | half-life ([6]; 10 mg/Kg, Oral PK, brain): 2.7 h; half-life ([6]; 10 mg/Kg, Oral PK, muscle): 4 h; half-life ([6]; 10 mg/Kg, Oral PK, plasma): 1.9 h; AUCnorm ([6]; Oral PK, plasma): 179 nM·kg·h/mg; Bioavaiability ([6]; Oral PK, plasma): 35%; Observed CmaxNorm ([6]; Oral PK, plasma): 257 nM·kg/mg
